Laboratory results from patent US9630977B2, “Cephalosporin derivatives and pharmaceutical compositions thereof” (Legochem Biosciences, Inc., priority 2011, dated 2017).
≈ marks a conversion by molar mass, not a printed value.

Each molecule was assayed on E. cloacae β19 (assay: In vitro antibacterial activity test (broth microdilution)). Conditions: Enterobacter cloacae, read-out: MIC90.
Format: cell-based
Procedure, shortened: (§1)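 Compounds were dissolved in DMSO at 10,240 ug/mL stock, diluted two-fold in DMSO and then twenty-fold in sterile water. Final test concentrations spanned 0.0626 to 128 ug/mL with 2.5% (V/V) DMSO, and MIC90 was read by CLSI broth microdilution.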

**Q.** Which MIC90 does the source give for `CC(C)(O/N=C(\C(=O)N[C@@H]1C(=O)N2C(C(=O)[O-])=C(C[n+]3cnc(N)c(NCCCCNC(=O)c4cc(=O)c(O)cn4O)c3)CSC12)c1csc(N)n1)C(=O)O` (stereo partly shown) [Compound 7] here?
**A.** 1 µg/mL (≈ 1.25 µM)

These molecules were tested on A. calcoaceticus ATCC15473 in the same assay as above. Conditions: Acinetobacter calcoaceticus; A. calcoaceticus ATCC15473; read-out: MIC90.
Format: cell-based
Procedure, shortened: as §1

**Q.** How did the MIC90 turn out when `CC(C)(O/N=C(\C(=O)N[C@@H]1C(=O)N2C(C(=O)[O-])=C(C[n+]3cnc(N)c(NCCCCNC(=O)c4cc(=O)c(O)cn4O)c3)CSC12)c1csc(N)n1)C(=O)O` (stereo partly shown) [Compound 7] was run?
**A.** 1 µg/mL (≈ 1.25 µM)

Each molecule was assayed on A. baumannii 49 in the same assay as above. Conditions: Acinetobacter baumannii; A. baumannii 49; read-out: MIC90.
Format: cell-based
Procedure, shortened: as §1

**Q.** `CC(C)(O/N=C(\C(=O)N[C@@H]1C(=O)N2C(C(=O)[O-])=C(C[n+]3cnc(N)c(NCCCCNC(=O)c4cc(=O)c(O)cn4O)c3)CSC12)c1csc(N)n1)C(=O)O` (stereo partly shown) [Compound 7] was tested. Which MIC90 did it give?
**A.** 8 µg/mL (≈ 9.98 µM)

The molecules below were run on K. pneumoniae β10 in the same assay as above. Conditions: Klebsiella pneumoniae; K. pneumoniae β10; read-out: MIC90.
Format: cell-based
Procedure, shortened: as §1

**Q.** For `CC(C)(O/N=C(\C(=O)N[C@@H]1C(=O)N2C(C(=O)[O-])=C(C[n+]3cnc(N)c(NCCCCNC(=O)c4cc(=O)c(O)cn4O)c3)CSC12)c1csc(N)n1)C(=O)O` (stereo partly shown) [Compound 7], which MIC90 is on record?
**A.** 4 µg/mL (≈ 4.99 µM)

What follows are molecules tested on A. baumannii 46 in the same assay as above. Conditions: Acinetobacter baumannii; A. baumannii 46; read-out: MIC90.
Format: cell-based
Procedure, shortened: as §1

**Q.** `CC(C)(O/N=C(\C(=O)N[C@@H]1C(=O)N2C(C(=O)[O-])=C(C[n+]3cnc(N)c(NCCCCNC(=O)c4cc(=O)c(O)cn4O)c3)CSC12)c1csc(N)n1)C(=O)O` (stereo partly shown) [Compound 7] was tested. Which MIC90 did it give?
**A.** 4 µg/mL (≈ 4.99 µM)

Each molecule was assayed on M. catarrhalis 2524 in the same assay as above. Conditions: Moraxella catarrhalis; M. catarrhalis 2524; read-out: MIC90.
Format: cell-based
Procedure, shortened: as §1

**Q.** Which MIC90 does the source give for `CC(C)(O/N=C(\C(=O)N[C@@H]1C(=O)N2C(C(=O)[O-])=C(C[n+]3cnc(N)c(NCCCCNC(=O)c4cc(=O)c(O)cn4O)c3)CSC12)c1csc(N)n1)C(=O)O` (stereo partly shown) [Compound 7] here?
**A.** 2 µg/mL (≈ 2.49 µM)

What follows are molecules tested on K. pneumoniae β14 in the same assay as above. Conditions: Klebsiella pneumoniae, read-out: MIC90.
Format: cell-based
Procedure, shortened: as §1

**Q.** With `CC(C)(O/N=C(\C(=O)N[C@@H]1C(=O)N2C(C(=O)[O-])=C(C[n+]3cnc(N)c(NCCCCNC(=O)c4cc(=O)c(O)cn4O)c3)CSC12)c1csc(N)n1)C(=O)O` (stereo partly shown) [Compound 7] as the molecule, how does the MIC90 read?
**A.** 32 µg/mL (≈ 39.9 µM)

Each molecule was assayed on P. aeruginosa 1912E in the same assay as above. Conditions: Pseudomonas aeruginosa, 1912E, read-out: MIC90.
Format: cell-based
Procedure, shortened: as §1

**Q.** For `CC(C)(O/N=C(\C(=O)N[C@@H]1C(=O)N2C(C(=O)[O-])=C(C[n+]3cnc(N)c(NCCCCNC(=O)c4cc(=O)c(O)cn4O)c3)CSC12)c1csc(N)n1)C(=O)O` (stereo partly shown) [Compound 7], which MIC90 is on record?
**A.** 0.5 µg/mL (≈ 0.624 µM)

Each molecule was assayed on K. pneumoniae β9 in the same assay as above. Conditions: Klebsiella pneumoniae, K. pneumoniae β9; read-out: MIC90.
Format: cell-based
Procedure, shortened: as §1

**Q.** `CC(C)(O/N=C(\C(=O)N[C@@H]1C(=O)N2C(C(=O)[O-])=C(C[n+]3cnc(N)c(NCCCCNC(=O)c4cc(=O)c(O)cn4O)c3)CSC12)c1csc(N)n1)C(=O)O` (stereo partly shown) [Compound 7] was tested. Which MIC90 did it give?
**A.** < 0.0625 µg/mL

These molecules were tested on K. pneumoniae β11 in the same assay as above. Conditions: Klebsiella pneumoniae; K. pneumoniae β11; read-out: MIC90.
Format: cell-based
Procedure, shortened: as §1

**Q.** With `CC(C)(O/N=C(\C(=O)N[C@@H]1C(=O)N2C(C(=O)[O-])=C(C[n+]3cnc(N)c(NCCCCNC(=O)c4cc(=O)c(O)cn4O)c3)CSC12)c1csc(N)n1)C(=O)O` (stereo partly shown) [Compound 7] as the molecule, how does the MIC90 read?
**A.** 16 µg/mL (≈ 20 µM)

The molecules below were run on K. pneumoniae β13 in the same assay as above. Conditions: Klebsiella pneumoniae, K. pneumoniae β13; read-out: MIC90.
Format: cell-based
Procedure, shortened: as §1

**Q.** `CC(C)(O/N=C(\C(=O)N[C@@H]1C(=O)N2C(C(=O)[O-])=C(C[n+]3cnc(N)c(NCCCCNC(=O)c4cc(=O)c(O)cn4O)c3)CSC12)c1csc(N)n1)C(=O)O` (stereo partly shown) [Compound 7] was tested. Which MIC90 did it give?
**A.** < 0.0625 µg/mL

What follows are molecules tested on E. coli β4 in the same assay as above. Conditions: Escherichia coli, read-out: MIC90.
Format: cell-based
Procedure, shortened: as §1

**Q.** With `CC(C)(O/N=C(\C(=O)N[C@@H]1C(=O)N2C(C(=O)[O-])=C(C[n+]3cnc(N)c(NCCCCNC(=O)c4cc(=O)c(O)cn4O)c3)CSC12)c1csc(N)n1)C(=O)O` (stereo partly shown) [Compound 7] as the molecule, how does the MIC90 read?
**A.** 0.125 µg/mL (≈ 0.156 µM)

These molecules were tested on P. aeruginosa 6065Y in the same assay as above. Conditions: Pseudomonas aeruginosa, read-out: MIC90.
Format: cell-based
Procedure, shortened: as §1

**Q.** How did the MIC90 turn out when `CC(C)(O/N=C(\C(=O)N[C@@H]1C(=O)N2C(C(=O)[O-])=C(C[n+]3cnc(N)c(NCCCCNC(=O)c4cc(=O)c(O)cn4O)c3)CSC12)c1csc(N)n1)C(=O)O` (stereo partly shown) [Compound 7] was run?
**A.** 1 µg/mL (≈ 1.25 µM)

Each molecule was assayed on P. aeruginosa 37 in the same assay as above. Conditions: Pseudomonas aeruginosa, 37, P. aeruginosa 37; read-out: MIC90.
Format: cell-based
Procedure, shortened: as §1

**Q.** With `CC(C)(O/N=C(\C(=O)N[C@@H]1C(=O)N2C(C(=O)[O-])=C(C[n+]3cnc(N)c(NCCCCNC(=O)c4cc(=O)c(O)cn4O)c3)CSC12)c1csc(N)n1)C(=O)O` (stereo partly shown) [Compound 7] as the molecule, how does the MIC90 read?
**A.** 0.125 µg/mL (≈ 0.156 µM)

The molecules below were run on P. aeruginosa 43 in the same assay as above. Conditions: Pseudomonas aeruginosa; P. aeruginosa 43; read-out: MIC90.
Format: cell-based
Procedure, shortened: as §1

**Q.** With `CC(C)(O/N=C(\C(=O)N[C@@H]1C(=O)N2C(C(=O)[O-])=C(C[n+]3cnc(N)c(NCCCCNC(=O)c4cc(=O)c(O)cn4O)c3)CSC12)c1csc(N)n1)C(=O)O` (stereo partly shown) [Compound 7] as the molecule, how does the MIC90 read?
**A.** 0.25 µg/mL (≈ 0.312 µM)

Each molecule was assayed on A. baumannii 52 in the same assay as above. Conditions: Acinetobacter baumannii; A. baumannii 52; read-out: MIC90.
Format: cell-based
Procedure, shortened: as §1

**Q.** For `CC(C)(O/N=C(\C(=O)N[C@@H]1C(=O)N2C(C(=O)[O-])=C(C[n+]3cnc(N)c(NCCCCNC(=O)c4cc(=O)c(O)cn4O)c3)CSC12)c1csc(N)n1)C(=O)O` (stereo partly shown) [Compound 7], which MIC90 is on record?
**A.** 16 µg/mL (≈ 20 µM)

What follows are molecules tested on E. coli AG100 in the same assay as above. Conditions: Escherichia coli, AG100, E. coli AG100; read-out: MIC90.
Format: cell-based
Procedure, shortened: as §1

**Q.** Which MIC90 does the source give for `CC(C)(O/N=C(\C(=O)N[C@@H]1C(=O)N2C(C(=O)[O-])=C(C[n+]3cnc(N)c(NCCCCNC(=O)c4cc(=O)c(O)cn4O)c3)CSC12)c1csc(N)n1)C(=O)O` (stereo partly shown) [Compound 7] here?
**A.** < 0.0625 µg/mL

These molecules were tested on K. pneumoniae 2011E in the same assay as above. Conditions: Klebsiella pneumoniae, 2011E, K. pneumoniae 2011E; read-out: MIC90.
Format: cell-based
Procedure, shortened: as §1

**Q.** Which MIC90 does the source give for `CC(C)(O/N=C(\C(=O)N[C@@H]1C(=O)N2C(C(=O)[O-])=C(C[n+]3cnc(N)c(NCCCCNC(=O)c4cc(=O)c(O)cn4O)c3)CSC12)c1csc(N)n1)C(=O)O` (stereo partly shown) [Compound 7] here?
**A.** 2 µg/mL (≈ 2.49 µM)

Each molecule was assayed on P. aeruginosa 40 in the same assay as above. Conditions: Pseudomonas aeruginosa, 40, P. aeruginosa 40; read-out: MIC90.
Format: cell-based
Procedure, shortened: as §1

**Q.** `CC(C)(O/N=C(\C(=O)N[C@@H]1C(=O)N2C(C(=O)[O-])=C(C[n+]3cnc(N)c(NCCCCNC(=O)c4cc(=O)c(O)cn4O)c3)CSC12)c1csc(N)n1)C(=O)O` (stereo partly shown) [Compound 7] was tested. Which MIC90 did it give?
**A.** 0.125 µg/mL (≈ 0.156 µM)
